Measured values: patent US4337199A, “Antibiotic β-lactam compounds, production thereof, and their use as antimicrobial agent” (Sanraku-Ocean Co., Ltd., priority 1978, dated 1982)
In brackets after ≈: the same amount, converted by molar mass.

Assays:
Experiment in all cases: minimum inhibitory concentration, agar dilution assay
Assay type in all cases: cell-based
[1] = tested on: Enterobacter aerogenes E19; details: Klebsiella aerogenes, E19; agar dilution, 35° C., 20 hours; read-out: minimum inhibitory concentration
Method: (§1) The antibiotic activities shown in Tables I-1 to I-8 above were determined in the following manner.
(§2) The minimum inhibitory concentrations of the compounds of formula (I-a-1) or (I-b-1) in Tables I-1 to I-7 and the known compounds in Table I-8 on the various microorganisms shown in the above tables were measured by an agar dilution assay method using a brain heart infusion agar medium "Difco" (a product of Difco Laboratories Inc.)
(§3) A sample of the test compound was dissolved in sterile distilled water and diluted to prepare a two-fold dilution series of the compound solution. In a petri plate of 9 cm diameter, 1 ml of the compound solution was added to 9 ml of molten sterile heart infusion agar medium (Difco Laboratories Inc.) at about 60° C. to prepare the compound-containing agar plate. An overnight culture of each test organism indicated in the above table which was prepared by stationary cultivation in Trypto-Soy broth (Eiken Chemi. Co., Ltd.) at 35° C. for 18 to 20 hours, was diluted with the Trypto-Soy broth to give approximately 10^8 cells/ml and the diluted inoculum was inoculated onto the compound-containing agar plates. After cultivating the plates at 35° C. for 20 hours, the growth of the organism was observed. The minimum concentration of the compound at which no growth of the microorganism was noted was determined, and defined as the minimum inhibitory concentration of the test compound.

Providencia sp. P8 = details: SP.P8, agar dilution, 35° C., 20 hours, read-out: minimum inhibitory concentration
Method: as §1, §2, §3

[2] = tested on: Bacillus subtilis ATCC 6633; details: ATCC6633, agar dilution, 35° C., 20 hours, read-out: minimum inhibitory concentration
Method: as §1, §2, §3

Proteus rettgeri P7 = details: Providencia rettgeri, P7; agar dilution, 35° C., 20 hours; read-out: minimum inhibitory concentration
Method: as §1, §2, §3

Proteus mirabilis P6 = details: P6, agar dilution, 35° C., 20 hours, read-out: minimum inhibitory concentration
Method: as §1, §2, §3

Serratia marcescens T55 = details: T55, agar dilution, 35° C., 20 hours, read-out: minimum inhibitory concentration
Method: as §1, §2, §3

[3] = tested on: Staphylococcus aureus Smith; details: agar dilution, 35° C., 20 hours, read-out: minimum inhibitory concentration
Method: as §1, §2, §3

[4] = tested on: Staphylococcus aureus Russell; details: agar dilution, 35° C., 20 hours, read-out: minimum inhibitory concentration
Method: as §1, §2, §3

Escherichia coli RGN 823 = details: RGN823, agar dilution, 35° C., 20 hours, read-out: minimum inhibitory concentration
Method: as §1, §2, §3

[5] = tested on: Staphylococcus epidermidis; details: agar dilution, 35° C., 20 hours, read-out: minimum inhibitory concentration
Method: as §1, §2, §3

Sarcina lutea = details: Micrococcus luteus; agar dilution, 35° C., 20 hours; read-out: minimum inhibitory concentration
Method: as §1, §2, §3

Enterobacter sp. E8 = details: SP.E8, agar dilution, 35° C., 20 hours, read-out: minimum inhibitory concentration
Method: as §1, §2, §3

Escherichia coli K-12 = details: K12, agar dilution, 35° C., 20 hours, read-out: minimum inhibitory concentration
Method: as §1, §2, §3

Enterobacter cloacae 45 = details: Enterobacter cloacae, 45; agar dilution, 35° C., 20 hours; read-out: minimum inhibitory concentration
Method: as §1, §2, §3

Alcaligenes faecalis A 1 = details: A1, agar dilution, 35° C., 20 hours, read-out: minimum inhibitory concentration
Method: as §1, §2, §3

[6] = tested on: Citrobacter freundii GN 346; details: GN346, agar dilution, 35° C., 20 hours, read-out: minimum inhibitory concentration
Method: as §1, §2, §3

[7] = tested on: Staphylococcus aureus FDA 209P; details: FDA209P, agar dilution, 35° C., 20 hours, read-out: minimum inhibitory concentration
Method: as §1, §2, §3

[8] = tested on: Pseudomonas aeruginosa NCTC10490; details: NCTC10490, agar dilution, 35° C., 20 hours, read-out: minimum inhibitory concentration
Method: as §1, §2, §3

[9] = tested on: Pseudomonas aeruginosa IFO3445; details: IFO3445, agar dilution, 35° C., 20 hours, read-out: minimum inhibitory concentration
Method: as §1, §2, §3

[10] = tested on: Klebsiella pneumoniae K-13; details: K13, agar dilution, 35° C., 20 hours, read-out: minimum inhibitory concentration
Method: as §1, §2, §3

Proteus vulgaris GN76 = details: GN76, agar dilution, 35° C., 20 hours, read-out: minimum inhibitory concentration
Method: as §1, §2, §3

Proteus sp. P22 = details: agar dilution, 35° C., 20 hours; read-out: minimum inhibitory concentration
Method: as §1, §2, §3

Serratia marcescens S18 = details: S18, agar dilution, 35° C., 20 hours, read-out: minimum inhibitory concentration
Method: as §1, §2, §3

[11] = tested on: Comamonas terrigena B-996; details: B996, agar dilution, 35° C., 20 hours, read-out: minimum inhibitory concentration
Method: as §1, §2, §3

Row | SMILES | MIC [1] | MIC (Providencia sp. P8) | MIC [2] | MIC (Proteus rettgeri P7) | MIC (Proteus mirabilis P6) | MIC (Serratia marcescens T55) | MIC [3] | MIC [4] | MIC (Escherichia coli RGN 823) | MIC [5] | MIC (Sarcina lutea) | MIC (Enterobacter sp. E8) | MIC (Escherichia coli K-12) | MIC (Enterobacter cloacae 45) | MIC (Alcaligenes faecalis A 1) | MIC [8] | MIC [9] | MIC (Proteus vulgaris GN76) | MIC (Proteus sp. P22) | MIC (Serratia marcescens S18) | other results
1 | CC(O)[C@H]1C(=O)N2C(C(=O)O)=C(Sc3ccncc3)C[C@H]12 (stereo partly drawn) [Example 59, 5,6-trans-3-(4-Pyridylthio)-6-(1-hydroxyethyl)-7-oxo-1-azabicyclo[3.2.0]hept-2-ene-2-carboxylic acid] | 50 µg/mL (≈ 163 µM) | 1.56 µg/mL (≈ 5.09 µM) | 0.2 µg/mL (≈ 0.653 µM) | 6.25 µg/mL (≈ 20.4 µM) | 6.25 µg/mL (≈ 20.4 µM) | 100 µg/mL (≈ 326 µM) | 0.2 µg/mL (≈ 0.653 µM) | 0.2 µg/mL (≈ 0.653 µM) | 25 µg/mL (≈ 81.6 µM) | 0.2 µg/mL (≈ 0.653 µM) | 0.1 µg/mL (≈ 0.326 µM) | 0.78 µg/mL (≈ 2.55 µM) | 1.56 µg/mL (≈ 5.09 µM) | 50 µg/mL (≈ 163 µM) | 0.025 µg/mL (≈ 0.0816 µM) | 1.56 µg/mL (≈ 5.09 µM) |  |  |  |  | MIC [6]: 100 µg/mL (≈ 326 µM); MIC [7]: 0.1 µg/mL (≈ 0.326 µM)
2 | CCC1C(=O)N2C(C(=O)O)=C(SC3CCCCC3)CC12 (stereo not shown) [Example 67, Sodium 3-cyclohexylthio-6-ethyl-7-oxo-1-azabicyclo[3.2.0.]hept-2-ene-2-carboxylate] | > 180 µg/mL | 180 µg/mL | 0.09 µg/mL | 180 µg/mL | 45 µg/mL | > 180 µg/mL | 0.04 µg/mL | < 0.01 µg/mL | 180 µg/mL | 0.04 µg/mL | < 0.01 µg/mL | > 180 µg/mL | 180 µg/mL | > 180 µg/mL | 5.6 µg/mL | 22.5 µg/mL | 180 µg/mL | 180 µg/mL | 90 µg/mL | > 180 µg/mL | MIC [10]: > 180 µg/mL; MIC [6]: > 180 µg/mL; MIC [7]: < 0.01 µg/mL; MIC [11]: < 0.01 µg/mL
3 | CCC1C(=O)N2C(C(=O)O)=C(Sc3ncccn3)CC12 (stereo not shown) [Example 61, 3-(2-pyrimidinylthio)-6-ethyl-7-oxo-1-azabicyclo[3.2.0]hept-2-ene-2-carboxylic acid] | 12.5 µg/mL (≈ 42.9 µM) | 0.78 µg/mL (≈ 2.68 µM) | < 0.012 µg/mL | 3.13 µg/mL (≈ 10.7 µM) | 3.13 µg/mL (≈ 10.7 µM) | 25 µg/mL (≈ 85.8 µM) | 0.024 µg/mL (≈ 0.0824 µM) | < 0.012 µg/mL | 3.13 µg/mL (≈ 10.7 µM) | 0.024 µg/mL (≈ 0.0824 µM) | < 0.012 µg/mL | 3.13 µg/mL (≈ 10.7 µM) | 1.56 µg/mL (≈ 5.35 µM) | 25 µg/mL (≈ 85.8 µM) | 0.2 µg/mL (≈ 0.687 µM) | 12.5 µg/mL (≈ 42.9 µM) | 12.5 µg/mL (≈ 42.9 µM) | 6.25 µg/mL (≈ 21.5 µM) | 12.5 µg/mL (≈ 42.9 µM) | 12.5 µg/mL (≈ 42.9 µM) | MIC [10]: 12.5 µg/mL (≈ 42.9 µM); MIC [6]: 25 µg/mL (≈ 85.8 µM); MIC [7]: < 0.012 µg/mL; MIC [11]: < 0.012 µg/mL
4 | CC(=O)NCCSC1=C(C(=O)O)N2C(=O)C(C(C)O)C2C1 (stereo not shown) [PS-3B, 3-(2-acetamidoethylthio)-6-(1-hydroxyethyl)-7-oxo-1-azabicyclo[3.2.0]hept-2-ene-2-carboxylic acid, reference compound] | 0.27 µg/mL (≈ 0.859 µM) | 0.27 µg/mL (≈ 0.859 µM) | 0.004 µg/mL (≈ 0.0127 µM) | 17 µg/mL (≈ 54.1 µM) | 0.53 µg/mL (≈ 1.69 µM) | 2.13 µg/mL (≈ 6.78 µM) | 0.13 µg/mL (≈ 0.414 µM) | 0.13 µg/mL (≈ 0.414 µM) | 1.06 µg/mL (≈ 3.37 µM) | 0.07 µg/mL (≈ 0.223 µM) | 0.004 µg/mL (≈ 0.0127 µM) | 0.07 µg/mL (≈ 0.223 µM) | 0.07 µg/mL (≈ 0.223 µM) | 1.06 µg/mL (≈ 3.37 µM) | 0.07 µg/mL (≈ 0.223 µM) | 34 µg/mL (≈ 108 µM) | 17 µg/mL (≈ 54.1 µM) | 8.5 µg/mL (≈ 27 µM) | 17 µg/mL (≈ 54.1 µM) | 2.13 µg/mL (≈ 6.78 µM) | MIC [10]: 8.5 µg/mL (≈ 27 µM); MIC [6]: 0.53 µg/mL (≈ 1.69 µM); MIC [7]: 0.07 µg/mL (≈ 0.223 µM); MIC [11]: 0.001 µg/mL (≈ 0.00318 µM)
5 | CC(O)[C@H]1C(=O)N2C(C(=O)O)=C(SC3CCCCC3)C[C@H]12 (stereo partly shown) | > 100 µg/mL | > 100 µg/mL | 6.25 µg/mL (≈ 20.1 µM) | > 100 µg/mL | 100 µg/mL (≈ 321 µM) | > 100 µg/mL | 0.39 µg/mL (≈ 1.25 µM) | 0.2 µg/mL (≈ 0.642 µM) | > 100 µg/mL | 0.39 µg/mL (≈ 1.25 µM) | 0.05 µg/mL (≈ 0.161 µM) | > 100 µg/mL | > 100 µg/mL | > 100 µg/mL | 25 µg/mL (≈ 80.3 µM) | 25 µg/mL (≈ 80.3 µM) | > 100 µg/mL | > 100 µg/mL | > 100 µg/mL | > 100 µg/mL | MIC [10]: > 100 µg/mL; MIC [6]: > 100 µg/mL; MIC [7]: 0.05 µg/mL (≈ 0.161 µM); MIC [11]: 0.05 µg/mL (≈ 0.161 µM)
6 | CC(C)C1C(=O)N2C(C(=O)O)=C(Sc3ccccn3)CC12 (stereo not shown) |  | 3.13 µg/mL (≈ 10.3 µM) |  | 6.25 µg/mL (≈ 20.5 µM) |  | 50 µg/mL (≈ 164 µM) |  |  |  |  |  |  |  |  |  | 50 µg/mL (≈ 164 µM) | 50 µg/mL (≈ 164 µM) | 12.5 µg/mL (≈ 41.1 µM) | 12.5 µg/mL (≈ 41.1 µM) | 50 µg/mL (≈ 164 µM) | 
7 | CCC1C(=O)N2C(C(=O)O)=C(Sc3ccccn3)CC12 (stereo not shown) [Example 65, 3-(2-Pyridylthio)-6-ethyl-7-oxo-1-azabicyclo-[3.2.0]hept-2-ene-2-carboxylicacid] |  | 1.56 µg/mL (≈ 5.37 µM) |  | 6.25 µg/mL (≈ 21.5 µM) |  | 25 µg/mL (≈ 86.1 µM) |  |  |  |  |  |  |  |  |  | 25 µg/mL (≈ 86.1 µM) | 12.5 µg/mL (≈ 43.1 µM) | 12.5 µg/mL (≈ 43.1 µM) | 6.25 µg/mL (≈ 21.5 µM) | 12.5 µg/mL (≈ 43.1 µM) | 
